Reference: EP3072514A1, “Novel oral anticoagulants (NOACs) for preventing development and aggravation of atrial fibrillation” (Université Pierre et Marie Curie - Paris 6 (UPMC), priority 2015, dated 2016)

Experiments:
Type in all cases: in vivo, Male OFA Sprague-dawley rats
paroxysmal AF = test: Duration of an AF episode induced by rapid stimulation of the left atrium with an esophageal electrode in I/R rats; conditions: 6 mg/kg/day
Text: • Figure 1 is a combination of two graphs showing left atrium (LA) area after one month of treatment with DTI Dabigatran (A) or S35792 (B). Vehicle (V) is 60% H2O/40% PEG 300 for dabigatran and saline for S35972. Treatment of rats started just after thoracotomy without (Sham) or with occlusion of left coronary artery followed by reperfusion (I/R). Results are presented as mean +/- S.E.M, *P<0.05, **P<0.01 and *** P<0.001 vs Sham; ^##P<0.01 and ^###P<0.001 vs untreated I/R. • Figure 2 is a combination of graphs showing left ventricular end-diastolic (LVED) diameter and fractional shortening (FS) after one month of treatment with Dabigatran (A) or S35792 (B). […] DTI plasma levels are quantified using LC-MS/MS. TT are expressed as mean +/- S.E.M with reference to the mean value of sham animals that underwent thoracotomy only. *** P<0.001 vs untreated I/R. • Figure 4 is a combination of three graphs showing left atrium (LA) area (A) and diameter (B) and left ventricle end-diastolic (LVED) diameter (C) after two months of treatment with S35972. […] LA area was measured by bidimensional echocardiography. LA and LVED diameters were measured in time-motion mode. […] AF duration is measured as the time between the end of the electric stimulation and the return to sinusoidal rhythm. […] Expression of mRNA was measured with real-time qPCR. […] Expression of mRNA was measured with real-time qPCR. […]

α-MHC = test: mRNA expression by real-time qPCR in atria and ventricle of I/R rats
Text: (§1) • Figure 1 is a combination of two graphs showing left atrium (LA) area after one month of treatment with DTI Dabigatran (A) or S35792 (B). Vehicle (V) is 60% H2O/40% PEG 300 for dabigatran and saline for S35972. Treatment of rats started just after thoracotomy without (Sham) or with occlusion of left coronary artery followed by reperfusion (I/R). […] Vehicle (V) is 60% H2O/40% PEG 300 for dabigatran and saline for S35972. Treatment of rats started just after thoracotomy without (Sham) or with occlusion of left coronary artery followed by reperfusion (I/R). Results are presented as mean +/- S.E.M. * P<0.05; ** P<0.001, *** P<0.001 vs Sham; #P<0.05 vs untreated I/R. • Figure 3 is a combination of two graphs showing thrombin time (TT), which reflects anticoagulant activity, and plasma concentrations of Dabigatran (A) and S35792 (B) in rats after throracotomy with occlusion of left coronary artery followed by reperfusion (I/R). Vehicle (V) is 60% H2O/40% PEG 300 for dabigatran and saline for S35972. Tests were carried out on blood collected by cardiac puncture at sacrifice (i.e. for Dabigatran, 90 minutes after last oral administration). DTI plasma levels are quantified using LC-MS/MS. TT are expressed as mean +/- S.E.M with reference to the mean value of sham animals that underwent thoracotomy only. *** P<0.001 vs untreated I/R. • Figure 4 is a combination of three graphs showing left atrium (LA) area (A) and diameter (B) and left ventricle end-diastolic (LVED) diameter (C) after two months of treatment with S35972. Treatment of rats started just after thoracotomy without (Sham) or with occlusion of left coronary artery followed by reperfusion (I/R). LA area was measured by bidimensional echocardiography. LA and LVED diameters were measured in time-motion mode. Results are presented as mean +/- S.E.M. *P<0.05, **P<0.01 and *** P<0.001 vs Sham; ^#P<0.05 ^###P<0.001 vs untreated I/R. • Figure 5 is a graph showing the impact of S35972 administration during two months on the duration of an episode of AF in rats undergone thoracotomy without (Sham) or with occlusion of left coronary artery followed by reperfusion (I/R). AF duration is measured as the time between the end of the electric stimulation and the return to sinusoidal rhythm. […] Rats undergone thoracotomy without (Sham) or with occlusion of left coronary artery followed by reperfusion (I/R). Expression of mRNA was measured with real-time qPCR. […] Expression of mRNA was measured with real-time qPCR. […] Expression of mRNA was measured with real-time qPCR. […] LA area was measured by bidimensional echocardiography. LVED and LA diameters were measured in time-motion mode. […] AF duration is measured as the time between the end of the electric stimulation and return to sinusoidal rhythm. […]

β-MHC = test: as above
Text: as §1

ANP = test: as above; conditions: 6 mg/kg/day, 2 months
Text: (§2) • Figure 1 is a combination of two graphs showing left atrium (LA) area after one month of treatment with DTI Dabigatran (A) or S35792 (B). Vehicle (V) is 60% H2O/40% PEG 300 for dabigatran and saline for S35972. Treatment of rats started just after thoracotomy without (Sham) or with occlusion of left coronary artery followed by reperfusion (I/R). Results are presented as mean +/- S.E.M, *P<0.05, **P<0.01 and *** P<0.001 vs Sham; ^##P<0.01 and ^###P<0.001 vs untreated I/R. • Figure 2 is a combination of graphs showing left ventricular end-diastolic (LVED) diameter and fractional shortening (FS) after one month of treatment with Dabigatran (A) or S35792 (B). Vehicle (V) is 60% H2O/40% PEG 300 for dabigatran and saline for S35972. Treatment of rats started just after thoracotomy without (Sham) or with occlusion of left coronary artery followed by reperfusion (I/R). Results are presented as mean +/- S.E.M. * P<0.05; ** P<0.001, *** P<0.001 vs Sham; #P<0.05 vs untreated I/R. • Figure 3 is a combination of two graphs showing thrombin time (TT), which reflects anticoagulant activity, and plasma concentrations of Dabigatran (A) and S35792 (B) in rats after throracotomy with occlusion of left coronary artery followed by reperfusion (I/R). Vehicle (V) is 60% H2O/40% PEG 300 for dabigatran and saline for S35972. Tests were carried out on blood collected by cardiac puncture at sacrifice (i.e. for Dabigatran, 90 minutes after last oral administration). DTI plasma levels are quantified using LC-MS/MS. TT are expressed as mean +/- S.E.M with reference to the mean value of sham animals that underwent thoracotomy only. *** P<0.001 vs untreated I/R. • Figure 4 is a combination of three graphs showing left atrium (LA) area (A) and diameter (B) and left ventricle end-diastolic (LVED) diameter (C) after two months of treatment with S35972. Treatment of rats started just after thoracotomy without (Sham) or with occlusion of left coronary artery followed by reperfusion (I/R). LA area was measured by bidimensional echocardiography. LA and LVED diameters were measured in time-motion mode. Results are presented as mean +/- S.E.M. *P<0.05, **P<0.01 and *** P<0.001 vs Sham; ^#P<0.05 ^###P<0.001 vs untreated I/R. • Figure 5 is a graph showing the impact of S35972 administration during two months on the duration of an episode of AF in rats undergone thoracotomy without (Sham) or with occlusion of left coronary artery followed by reperfusion (I/R). AF duration is measured as the time between the end of the electric stimulation and the return to sinusoidal rhythm. Results are presented as mean +/- S.E.M, *P<0.05 vs Sham; ^##P<0.01 vs untreated I/R, • Figure 6 is a combination of graphs showing the impact of treatments with 25 mg/kg/d dabigatran for 4 weeks and 6 mg/kg/d S35972 for 8 weeks on atrial (A) and ventricular (B) expression of myosin heavy chain (MHC) isoforms. Rats undergone thoracotomy without (Sham) or with occlusion of left coronary artery followed by reperfusion (I/R). Expression of mRNA was measured with real-time qPCR. Results are presented as mean +/- S.E.M. *P<0.05, **P<0.01 vs Sham; #P<0.05 vs untreated I/R. • Figure 7 is a combination of graphs showing the impact of 2 months S35972 administration on the expression of the hypertrophic markers, brain and atrial natriuretic peptides (BNP and ANP) in atria (A) and ventricle (B). Rats undergone thoracotomy without (Sham) or with occlusion of left coronary artery followed by reperfusion (I/R). Expression of mRNA was measured with real-time qPCR. Results are presented as mean +/- S.E.M. *P<0.05, ***P<0.001 vs Sham; #P<0.05, ##P<0.01 vs untreated I/R. • Figure 8 is a combination of graphs showing the impact of 2 months S35972 administration on the expression of fibrotic markers, plasminogen activator inhibitor 1 (PAI-1, A) and heparin-binding epidermal growth factor (HB-EGF, B) in atria and ventricle. Rats undergone thoracotomy without (Sham) or with occlusion of left coronary artery followed by reperfusion (I/R). […]

BNP = test: as above; conditions: 6 mg/kg/day, 2 months
Text: as §2

HB-EGF = test: as above; conditions: 2 months administration
Text: as §2

PAI-1 = test: as above; conditions: 2 months administration
Text: as §2

[1] = atrium, 6 mg/kg/day for 8 weeks post I/R
[2] = ventricle, 6 mg/kg/day post I/R

4-oxo-3-(2-pyridin-2-ylethylamino)-4,6,7,8-tetrahydro-pyrrolo[1,2-a]pyrazine-6-carboxylic acid 2-ethylcarbamoyl methoxy-benzylamide [S35972]
AF duration (paroxysmal AF; administered 1 month post I/R in rats with dilated atria): tends to decrease AF duration
duration of episode of paroxysmal AF (paroxysmal AF; eight weeks post I/R): decreases the duration of this episode of paroxysmal AF to the control values
expression of α-MHC (mRNA) in left atrium (α-MHC; [1]): without impacting the expression of α-MHC
expression of α-MHC (mRNA) in the ventricle (α-MHC; [2]): without significant impact on the expression of α-MHC
synthesis of β-MHC (mRNA) in left atrium (β-MHC; [1]): prevents the synthesis of β-MHC
synthesis of β-MHC (mRNA) in the ventricle (β-MHC; [2]): prevents the synthesis of β-MHC
expression of ANP (mRNA) in the atrium (ANP; atrium): does not impact its expression
synthesis of ANP (mRNA) in the ventricle (ANP; ventricle): significantly reduces its synthesis
synthesis of BNP (mRNA) in the atrium (BNP; atrium): prevents the synthesis of BNP
synthesis of BNP (mRNA) in the ventricle (BNP; ventricle): prevents the synthesis of BNP
induction of HB-EGF mRNA in atria (HB-EGF; atria): prevents the induction of HB-EGF mRNA
induction of HB-EGF mRNA in ventricles (HB-EGF; ventricles): prevents the induction of HB-EGF mRNA
mRNA expression of PAI-1 in atria (PAI-1; atria): has an inhibitory effect
mRNA expression of PAI-1 in ventricles (PAI-1; ventricles): inhibitory effect in atria only
